Source: patent US20230085307A1, “PYRIDAZINONE COMPOUND AND HERBICIDE” (NISSAN CHEMICAL CORPORATION, priority 2019, published 2023)

Key:
[1] = test system: wild oat; experiment: Test Example 4: herbicidal effect by soil treatment (Table 19, symbol I); type: in vivo, wild oat (Avena fatua); conditions: amount of applied herbicide 320 g/ha
Procedure, shortened: (§1)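 Scoring uses the grading scale of an earlier test, three weeks post-application. Treatment consists of spraying a diluted emulsion formulation across the surface of sterilized diluvial soil in which seeds are buried near 1.5 cm deep; boxes are kept in a greenhouse between 25° C. and 30° C.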

[2] = test system: chickweed; experiment: Test Example 4: herbicidal effect by soil treatment (Table 19, symbol P); type: in vivo, common chickweed (Stellaria media); conditions: amount of applied herbicide 320 g/ha
Procedure, shortened: as §1

[3] = test system: blackgrass; experiment: Test Example 4: herbicidal effect by soil treatment (Table 19, symbol J); type: in vivo, blackgrass (Alopecurus myosuroides); conditions: amount of applied herbicide 320 g/ha
Procedure, shortened: as §1

[4] = test system: Italian ryegrass; experiment: Test Example 5: herbicidal effect by foliage application, plastic box (Table 20, symbol K); type: in vivo, Italian ryegrass (Lolium multiflorum); conditions: foliage application, 320 g/ha, evaluated three weeks after application
Procedure, shortened: (§2)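 Post-emergence foliar test in sterilized diluvial soil. Compound applied as water-diluted emulsion at a predetermined rate to 14-day-old plants; evaluation at three weeks.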

[5] = test system: southern crabgrass; experiment: Test Example 5: herbicidal effect by foliage application, plastic box (Table 20, symbol F); type: in vivo, southern crabgrass (Digitaria ciliaris); conditions: foliage application, 320 g/ha, evaluated three weeks after application
Procedure, shortened: as §2

[6] = test system: Italian ryegrass; experiment: Test Example 4: herbicidal effect by soil treatment (Table 19, symbol K); type: in vivo, Italian ryegrass (Lolium multiflorum); conditions: amount of applied herbicide 320 g/ha
Procedure, shortened: as §1

[7] = test system: wild oat; experiment: Test Example 5: herbicidal effect by foliage application, plastic box (Table 20, symbol I); type: in vivo, wild oat (Avena fatua); conditions: foliage application, 320 g/ha, evaluated three weeks after application
Procedure, shortened: as §2

[8] = test system: late watergrass; experiment: Test Example 2: herbicidal activity, application during weed generation under submerged conditions (Table 17, symbol A); type: in vivo, late watergrass (Echinochloa oryzicola); conditions: AAH 320 g/ha; application during weed generation, submerged conditions
Procedure, shortened: (§3)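 Effect on each weed is rated three weeks post-treatment, using the same scoring criteria as the preceding test. Plants grow from mixed-sown seed in flooded alluvial soil (4 cm water) at 25° C. to 30° C., and are treated at one to two leaves with diluted emulsion dropped onto the water.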

[9] = test system: oval-leafed pondweed; experiment: Test Example 2: herbicidal activity, application during weed generation under submerged conditions (Table 17, symbol C); type: in vivo, oval-leafed pondweed (Monochoria vaginalis); conditions: AAH 320 g/ha; application during weed generation, submerged conditions
Procedure, shortened: as §3

[10] = test system: redroot pigweed; experiment: Test Example 4: herbicidal effect by soil treatment (Table 19, symbol N); type: in vivo, redroot pigweed (Amaranthus retroflexus); conditions: amount of applied herbicide 320 g/ha
Procedure, shortened: as §1

[11] = test system: green foxtail; experiment: Test Example 4: herbicidal effect by soil treatment (Table 19, symbol G); type: in vivo, green foxtail (Setaria viridis); conditions: amount of applied herbicide 320 g/ha
Procedure, shortened: as §1

[12] = test system: persian speedwell; experiment: Test Example 5: herbicidal effect by foliage application, plastic box (Table 20, symbol R); type: in vivo, Persian speedwell (Veronica persica); conditions: foliage application, 320 g/ha, evaluated three weeks after application
Procedure, shortened: as §2

[13] = test system: green foxtail; experiment: Test Example 5: herbicidal effect by foliage application, plastic box (Table 20, symbol G); type: in vivo, green foxtail (Setaria viridis); conditions: foliage application, 320 g/ha, evaluated three weeks after application
Procedure, shortened: as §2

[14] = test system: oval-leafed pondweed; experiment: Test Example 1: herbicidal activity, application before weed generation under submerged conditions (Table 16, symbol C); type: in vivo, oval-leafed pondweed (Monochoria vaginalis); conditions: 320 g/ha applied herbicide
Procedure, shortened: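 Alluvial soil was flooded to 4 cm depth, weed seeds were sown mixed and 2.5-leaf rice seedlings were transplanted. On sowing day, the compound's emulsion, diluted in water to a set dose, was applied to the water surface. Plants grew at 25–30 °C and were scored 0–5 after three weeks.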

[15] = test system: velvetleaf; experiment: Test Example 5: herbicidal effect by foliage application, plastic box (Table 20, symbol M); type: in vivo, velvetleaf (Abutilon theophrasti); conditions: foliage application, 320 g/ha, evaluated three weeks after application
Procedure, shortened: as §2

[16] = test system: rice flat sedge; experiment: Test Example 3: herbicidal effect by foliage application, Wagner pot (Table 18, symbol E); type: in vivo, rice flat sedge (Cyperus iria); conditions: amount of applied herbicide 320 g/ha
Procedure, shortened: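 Plants were sown in alluvial soil held under 0.1–0.5 cm standing water and grown 14 days in a greenhouse at 25–30 °C. An emulsifiable formulation, water-diluted to the set dose, was then sprayed onto the foliage, and effects were scored three weeks later using previously defined criteria.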

[17] = test system: velvetleaf; experiment: Test Example 4: herbicidal effect by soil treatment (Table 19, symbol M); type: in vivo, velvetleaf (Abutilon theophrasti); conditions: amount of applied herbicide 320 g/ha
Procedure, shortened: as §1

Row | SMILES | herbicidal effect on K: Italian ryegrass (criteria 0-5) [4] | herbicidal effect on F: southern crabgrass (criteria 0-5) [5] | herbicidal effect on I: wild oat (criteria 0-5) [7] | herbicidal effect rating, A: late watergrass [8] | herbicidal effect rating, C: oval-leafed pondweed [9] | herbicidal effect on R: persian speedwell (criteria 0-5) [12] | herbicidal effect on G: green foxtail (criteria 0-5) [13] | Herbicidal effect on C: oval-leafed pondweed (grade 0-5) [14] | herbicidal effect on M: velvetleaf (criteria 0-5) [15] | herbicidal effect on E: rice flat sedge [16] | herbicidal effect on I: wild oat [1] | herbicidal effect on P: chickweed [2] | herbicidal effect on J: blackgrass [3] | herbicidal effect on K: Italian ryegrass [6] | herbicidal effect on N: redroot pigweed [10] | herbicidal effect on G: green foxtail [11] | herbicidal effect on M: velvetleaf [17] | other results
1 | Cc1nn(C)c(=O)c(-c2c(-c3cccc(OCC(C)C)c3)sc3ccc(F)cc23)c1O [2-221] | 5 (Herbicidal rate of 90% or more (almost completely withered)) | 5 (Herbicidal rate of 90% or more (almost completely withered)) | 5 (Herbicidal rate of 90% or more (almost completely withered)) | 5 (Herbicidal rate of 90% or more (almost completely withered)) | 3 (Herbicidal rate of 40% or more and less than 70%) | 5 (Herbicidal rate of 90% or more (almost completely withered)) | 5 (Herbicidal rate of 90% or more (almost completely withered)) | 5 (Herbicidal rate of 90% or more (almost completely withered)) | 5 (Herbicidal rate of 90% or more (almost completely withered)) | 5 (Herbicidal rate of 90% or more (almost completely withered)) | – | – | – | – | – | – | – | I: wild oat, herbicidal effect rating [1]: 0 (Herbicidal rate of 5% or less (almost no effect)); P: chickweed, herbicidal effect rating [2]: 3 (Herbicidal rate of 40% or more and less than 70%); J: blackgrass, herbicidal effect rating [3]: 5 (Herbicidal rate of 90% or more (almost completely withered)); K: Italian ryegrass, herbicidal effect rating [6]: 4 (Herbicidal rate of 70% or more and less than 90%); N: redroot pigweed, herbicidal effect rating [10]: 5 (Herbicidal rate of 90% or more (almost completely withered)); G: green foxtail, herbicidal effect rating [11]: 5 (Herbicidal rate of 90% or more (almost completely withered)); M: velvetleaf, herbicidal effect rating [17]: 4 (Herbicidal rate of 70% or more and less than 90%)
2 | Cc1nn(C)c(=O)c(-c2c(-c3cccc(OC(C)(C)C)c3)sc3ccc(F)cc23)c1O [2-223] | 1 (Herbicidal rate of 5% or more and less than 20%) | 3 (Herbicidal rate of 40% or more and less than 70%) | 1 (Herbicidal rate of 5% or more and less than 20%) | 3 (Herbicidal rate of 40% or more and less than 70%) | 0 (Herbicidal rate of 5% or less (almost no effect)) | 5 (Herbicidal rate of 90% or more (almost completely withered)) | 1 (Herbicidal rate of 5% or more and less than 20%) | 2 (Herbicidal rate of 20% or more and less than 40%) | 5 (Herbicidal rate of 90% or more (almost completely withered)) | 4 (Herbicidal rate of 70% or more and less than 90%) | 0 (Herbicidal rate of 5% or less (almost no effect)) | 4 (Herbicidal rate of 70% or more and less than 90%) | 0 (Herbicidal rate of 5% or less (almost no effect)) | 0 (Herbicidal rate of 5% or less (almost no effect)) | 3 (Herbicidal rate of 40% or more and less than 70%) | 3 (Herbicidal rate of 40% or more and less than 70%) | 1 (Herbicidal rate of 5% or more and less than 20%) | –
3 | CCCC(=O)Oc1c(C)nn(C)c(=O)c1-c1c(-c2ccc(C(F)F)cc2)sc2ccc(F)cc12 [2-228] | 3 (Herbicidal rate of 40% or more and less than 70%) | 4 (Herbicidal rate of 70% or more and less than 90%) | 0 (Herbicidal rate of 5% or less (almost no effect)) | 3 (Herbicidal rate of 40% or more and less than 70%) | 3 (Herbicidal rate of 40% or more and less than 70%) | 5 (Herbicidal rate of 90% or more (almost completely withered)) | 5 (Herbicidal rate of 90% or more (almost completely withered)) | 4 (Herbicidal rate of 70% or more and less than 90%) | 5 (Herbicidal rate of 90% or more (almost completely withered)) | 5 (Herbicidal rate of 90% or more (almost completely withered)) | 0 (Herbicidal rate of 5% or less (almost no effect)) | 4 (Herbicidal rate of 70% or more and less than 90%) | 0 (Herbicidal rate of 5% or less (almost no effect)) | 0 (Herbicidal rate of 5% or less (almost no effect)) | 4 (Herbicidal rate of 70% or more and less than 90%) | 4 (Herbicidal rate of 70% or more and less than 90%) | 3 (Herbicidal rate of 40% or more and less than 70%) | –
4 | CCSc1ccc(-c2sc3ccc(F)cc3c2-c2c(O)c(C)nn(C)c2=O)cc1 [2-244] | 5 (Herbicidal rate of 90% or more (almost completely withered)) | 5 (Herbicidal rate of 90% or more (almost completely withered)) | 5 (Herbicidal rate of 90% or more (almost completely withered)) | 5 (Herbicidal rate of 90% or more (almost completely withered)) | 4 (Herbicidal rate of 70% or more and less than 90%) | 5 (Herbicidal rate of 90% or more (almost completely withered)) | 5 (Herbicidal rate of 90% or more (almost completely withered)) | 0 (Herbicidal rate of 5% or less (almost no effect)) | 5 (Herbicidal rate of 90% or more (almost completely withered)) | 5 (Herbicidal rate of 90% or more (almost completely withered)) | 0 (Herbicidal rate of 5% or less (almost no effect)) | 1 (Herbicidal rate of 5% or more and less than 20%) | 5 (Herbicidal rate of 90% or more (almost completely withered)) | 4 (Herbicidal rate of 70% or more and less than 90%) | 5 (Herbicidal rate of 90% or more (almost completely withered)) | 5 (Herbicidal rate of 90% or more (almost completely withered)) | 2 (Herbicidal rate of 20% or more and less than 40%) | –
